These compounds were tested on mouse ear (assay: mouse ear assay (croton oil-induced ear inflammation, anti-inflammatory activity)). Details: topical, 0.05 ml in acetone containing 2% croton oil on right ear; 3 hours; linear regression of data at 2×10^-2, 4×10^-2 and 8×10^-2 M; groups of 15 mice.
Assay type: in vivo, male ddY strain mouse
Procedure: G. Van Arman, Clin. Pharm. […] Details of the mouse ear assay are as follows:
The test animal was the male ddY strain mouse (20-25 grams each). Solutions of the test compound in acetone containing 2% croton oil (i.e. a solution containing 98 parts of acetone to 2 parts of croton oil) were prepared for varying concentrations of the test compound. Then, the test animals were anesthetized and 0.05 ml of the selected test solution was applied in 0.025 ml aliquots, one each to the anterior and posterior surface of the right ear of each mouse. Three hours after application, the mice were sacrificed via ether inhalation and both ears were removed from each mouse. Then, one circular section, 8 mm in diameter, was taken from each ear using a leather punch. The increase in weight caused by the irritant was determined by subtracting the weight of the untreated left ear section from that of the right ear section. Drug effects expressed as percent inhibition were determined at each selected concentration (molarity) of each test compound according to the following equation: [formula]
Groups of 15 mice were treated at each dosage level of each test compound. The control group consisted of 30 mice. In the control group, the right ear of each mouse was treated with the croton oil/acetone solution described above but not containing test compound, while the left ear of each control mouse was untreated.
Indomethacin, indomethacin hydroxamic acid and the compounds of Examples 3, 4 and 5 were tested according to the mouse ear assay described above.

How did the ED50 turn out when `COc1ccc2c(c1)c(CC(=O)NO)c(C)n2C(=O)c1ccc(Cl)cc1` [Indomethacin hydroxamic acid, α-[1-(4'-Chlorobenzoyl)-5-methoxy-2-methylindol-3-yl]acetohydroxamicAcid] was run?
Its ED50 is 0.096 M.

Which ED50 does the source give for `COc1ccc2c(c1)c(CC(=O)O)c(C)n2C(=O)c1ccc(Cl)cc1` [Indomethacin, 1-(4'-Chlorobenzoyl)-5-methoxy-2-methyl-3-indolylacetic Acid, reference compound] here?
The ED50 was 0.061 M.

For `CCN(CC)CN(O)C(=O)Cc1c(C)n(C(=O)c2ccc(Cl)cc2)c2ccc(OC)cc12` [α-[1-(4'-Chlorobenzoyl)-5-methoxy-2-methylindol-3-yl]-N-(N', N'-diethylaminomethyl)acetohydroxamic Acid], which ED50 is on record?
The ED50 was 0.041 M.

With `COc1ccc2c(c1)c(CC(=O)N(O)CN1CCOCC1)c(C)n2C(=O)c1ccc(Cl)cc1` [α-[1-(4'-Chlorobenzoyl)-5-methoxy-2-methylindol-3-yl]-N-(morpholinomethyl)acetohydroxamic Acid] as the compound, how does the ED50 read?
Its ED50 is 0.054 M.

`COc1ccc2c(c1)c(CC(=O)N(O)CN1CCN(C)CC1)c(C)n2C(=O)c1ccc(Cl)cc1` [α-[1-(4'-Chlorobenzoyl)-5-methoxy-2-methylindol-3-yl]-N-[(4-methylpiperazin-1-yl)methyl]acetohydroxamic Acid] was tested. Which ED50 did it give?
Its ED50 is 0.027 M.

Reference: patent US4412994A, “Mannich-base hydroxamic acid prodrugs, compositions and use” (INTERx Research Corporation, priority 1982, dated 1983)
